Among the data in patent publication US20040002526A1, “Phospholipase D inhibitors and uses thereof” (Cell Therapeutics, Inc., priority 2002, published 2004) are IC50 values, retold here.

pIC50: −log10 of the molar value.

The target of the first assay is T1, PLD (phospholipase D).
T1 construct: fused on or other part: N-terminal polyhistidine tag (pFastBac HTc) on either enzyme
Briefly: In vitro assay of PLD activity ([3H]-choline release from labelled PC). Format: biochemical, human. The following applies: Table 1, monocyclic thiazolidinones of Formula I; PLD isoform not stated. How it is done:
Recombinant PLD1 and PLD2—Human PLD1 and PLD2 were isolated from Sf9 insect cells that had been infected with recombinant baculovirus vector, pFastBac™HTc vector (Life Technologies, Gaithersburg, Md.), containing PLD1 or PLD2 cDNAs.
PLD1 activity was assayed by measuring the generation of [^3H]-choline from [choline-methyl^3H](16:0, 16:0)PC.
The assay procedure for PLD2 was similar to that for PLD1, with the exception that arf1, PKC-α, and GTPγS were omitted from the reaction mixture. After addition of enzymes, the reactions were incubated for 1 hour at room temperature. Twenty microliters of 12% trichloroacetic acid (TCA) then were added to each sample, to stop the reaction and to precipitate the unreacted [choline-methyl^3H](16:0, 16:0)PC. Thereafter, the samples were passed through 0.65 μm Millipore 96 well filter plates to removed the excess [choline-methyl^3H](16:0, 16:0)PC. For each sample the filtrate (50 μl), which contained the [^3H]-choline released by PLD cleavage of PC, was analyzed using a TopCount™ Liquid Scintillation Counter, a product of Packard (Meriden, Conn.).
Take `COC(=O)c1ccc(-c2ccc(/C=C3\SC(=O)NC3=O)o2)cc1` [Compound 31, 4-[5-(2,4-dioxo-thiazolidin-5-ylidenemethyl)-furan-2-yl]-benzoic acid methyl ester]: the IC50 result is recorded as “less active”.
Still for that read-out and setting: for `COC(=O)c1ccc(-c2ccc(/C=C3\SC(=O)N(CC4CC4)C3=O)o2)cc1` [Compound 33, 4-[5-(3-cyclopropylmethyl-2,4-dioxo-thiazolidin-5-ylidenemethyl)-furan-2-yl]-benzoic acid methyl ester] the value was “less active”.
For `COC(=O)c1ccc(-c2ccc(/C=C3\SC(=S)N(Cc4cc(OC)c(OC)c(OC)c4)C3=O)s2)cc1` [Compound 36, 4-{5-[4-oxo-2-thioxo-3-(3,4,5-trimethoxy-benzyl)-thiazolidin-5-ylidenemethyl]-thiophen-2-yl}-benzoic acid methyl ester], the IC50 result is given as “less active”.

Still in this assay, the particulars now being: Table 1, monocyclic thiazolidinones of Formula I; PLD isoform not stated; read-out: IC50.
For `O=C(O)c1ccc(-c2ccc(/C=C3\SC(=S)N(c4ccccc4)C3=O)o2)cc1` [Compound 29, 4-[5-(4-oxo-3-phenyl-2-thioxo-thiazolidin-5-ylidenemethyl)-furan-2-yl]-benzoic acid], the pIC50 is 5.40.
In the case of `COC(=O)c1ccc(-c2ccc(/C=C3\SC(=S)N(Cc4ccccc4)C3=O)o2)cc1` [Compound 30, 4-[5-(3-benzyl-4-oxo-2-thioxo-thiazolidin-5-ylidenemethyl)-furan-2-yl]-benzoic acid methyl ester], the pIC50 is 4.80.
For the compound `O=C(O)c1ccc(-c2ccc(/C=C3\SC(=S)N(Cc4ccccc4C(F)(F)F)C3=O)o2)cc1` [Compound 34, 4-{5-[4-oxo-2-thioxo-3-(2-trifluoromethyl-benzyl)-thiazolidin-5-ylidenemethyl]-furan-2-yl}-benzoic acid], the pIC50 was 5.82.
For `Cc1ccc(CN2C(=O)/C(=C/c3ccc(-c4ccc(C(=O)O)cc4)o3)SC2=S)cc1` [Compound 35, 4-{5-[3-(4-methyl-benzyl)-4-oxo-2-thioxo-thiazolidin-5-ylidenemethyl]-furan-2-yl}-benzoic acid], the pIC50 is 5.70.
Still for that read-out and setting: for `O=C(O)c1ccc(-c2ccc(/C=C3\SC(=S)N(Cc4cccs4)C3=O)s2)cc1` [Compound 37, 4-[5-(4-oxo-3-thiophen-2-ylmethyl-2-thioxo-thiazolidin-5-ylidenemethyl)-thiophen-2-yl]-benzoic acid] the value was 5.30.
On the same count and under the same terms, for `Cc1ccc(CN2C(=O)/C(=C/c3ccc(-c4ccc(S(N)(=O)=O)cc4)o3)SC2=S)cc1` [Compound 38, 4-{5-[3-(4-methyl-benzyl)-4-oxo-2-thioxo-thiazolidin-5-ylidenemethyl]-furan-2-yl}-benzenesulfonamide] the value was 5.22.
On the same count and under the same terms, the figure for `N#Cc1ccc(-c2ccc(/C=C3\SC(=S)N(Cc4cccnc4)C3=O)o2)cc1` [Compound 39, 4-[5-(4-oxo-3-pyridin-3-ylmethyl-2-thioxo-thiazolidin-5-ylidenemethyl)-furan-2-yl]-benzonitrile] is 5.40; for `CN(C)c1ccc(/C=C/C=C2\SC(=S)N(c3ccc(C(=O)O)cc3)C2=O)cc1` [Compound 40, 4-{5-[3-(4-dimethylamino-phenyl)-allylidene]-4-oxo-2-thioxo-thiazolidin-3-yl}-benzoic acid] it is 5.10.
Turning to `O=C(O)c1ccc(N2C(=O)/C(=C/c3cc4ccccc4o3)SC2=S)cc1` [Compound 41, 4-(5-benzofuran-2-ylmethylene-4-oxo-2-thioxo-thiazolidin-3-yl)-benzoic acid], the pIC50 is 5.70.

Staying with this assay, now noted: Table 2, bicyclic thiazolidinones of Formula II; PLD isoform not stated; read-out: IC50.
In the case of `CCOC(=O)C1=C(C)N=c2s/c(=C\c3ccc(-c4ccc(C(=O)O)cc4)o3)c(=O)n2C1c1ccc(OC)c(OC)c1` (stereo not shown) [Compound 42, 2-[5-(4-Carboxy-phenyl)-furan-2-ylmethylene]-5-(3,4-dimethoxy-phenyl)-7-methyl-3-oxo-2,3-dihydro-5H-thiazolo[3,2-a]pyrimidine-6-carboxylic acid ethyl ester], the pIC50 is 5.35.
With `CCOC(=O)C1=C(C)N=c2s/c(=C\c3ccc(-c4ccc(C(=O)O)cc4)o3)c(=O)n2C1c1ccc(N(C)C)cc1` (stereo not shown) [Compound 43, 2-[5-(4-Carboxy-phenyl)-furan-2-ylmethylene]-5-(4-dimethylamino-phenyl)-7-methyl-3-oxo-2,3-dihydro-5H-thiazolo[3,2-a]pyrimidine-6-carboxylic acid ethyl ester], the pIC50 was 5.57.
In the case of `CCOC(=O)C1=C(C)N=c2s/c(=C\c3ccc(-c4ccc(C(=O)O)cc4)o3)c(=O)n2C1c1ccc2c(c1)OCO2` (stereo not shown) [Compound 44, 5-Benzo[1,3]dioxol-5-yl-2-[5-(4-carboxy-phenyl)-furan-2-ylmethylene]-7-methyl-3-oxo-2,3-dihydro-5H-thiazolo[3,2-a]pyrimidine-6-carboxylic acid ethyl ester], the pIC50 was 5.64.
Still for that read-out and setting: for `CCOC(=O)C1=C(C)N=c2s/c(=C\c3ccc(-c4ccc(Cl)c(C(=O)O)c4)o3)c(=O)n2C1c1ccc(N(C)C)cc1` (stereo not shown) [Compound 45, 2-[5-(3-Carboxy-4-chloro-phenyl)-furan-2-ylmethylene]-5-(4-dimethylamino-phenyl)-7-methyl-3-oxo-2,3-dihydro-5H-thiazolo[3,2-a]pyrimidine-6-carboxylic acid ethyl ester] the value was 5.72; for `CCOC(=O)C1=C(C)N=c2s/c(=C\c3ccc(-c4cccc(C(=O)O)c4)o3)c(=O)n2C1c1ccccc1` (stereo not shown) [Compound 46, 2-[5-(3-Carboxy-phenyl)-furan-2-ylmethylene]-7-methyl-3-oxo-5-phenyl-2,3-dihydro-5H-thiazolo[3,2-a]pyrimidine-6-carboxylic acid ethyl ester], 5.37.
As to `CCOC(=O)C1=C(C)N=c2s/c(=C\c3ccc(-c4cccc(C(=O)O)c4)o3)c(=O)n2C1c1ccc(OC)cc1` (stereo not shown) [Compound 47, 2-[5-(3-Carboxy-phenyl)-furan-2-ylmethylene]-5-(4-methoxy-phenyl)-7-methyl-3-oxo-2,3-dihydro-5H-thiazolo[3,2-a]pyrimidine-6-carboxylic acid ethyl ester], the pIC50 was 5.70.
Still for that read-out and setting: the figure for `CCOC(=O)C1=C(C)N=c2s/c(=C\c3ccc(-c4ccc(C(=O)O)cc4)o3)c(=O)n2C1c1ccc(C)cc1` (stereo not shown) [Compound 48] is 5.46; for `CCOC(=O)C1=C(C)N=c2s/c(=C\c3ccc(-c4cccc(C(=O)O)c4)o3)c(=O)n2C1c1ccc(C)cc1` (stereo not shown) [Compound 49, 2-[5-(3-Carboxy-phenyl)-furan-2-ylmethylene]-7-methyl-3-oxo-5-p-tolyl-2,3-dihydro-5H-thiazolo[3,2-a]pyrimidine-6-carboxylic acid ethyl ester] it is 5.55; for `CCOC(=O)C1=C(C)N=c2s/c(=C\c3ccc(-c4ccc(C(=O)O)cc4)o3)c(=O)n2C1c1ccc(Cl)cc1` (stereo not shown) [Compound 50, 2-[5-(4-Carboxy-phenyl)-furan-2-ylmethylene]-5-(4-chloro-phenyl)-7-methyl-3-oxo-2,3-dihydro-5H-thiazolo[3,2-a]pyrimidine-6-carboxylic acid ethyl ester] it is 5.47.
The same measure, in the same setting: the figure for `CCOC(=O)C1=C(C)N=c2s/c(=C\c3ccc(-c4cccc(C(=O)O)c4)o3)c(=O)n2C1c1ccc2c(c1)OCO2` (stereo not shown) [Compound 51, 5-Benzo[1,3]dioxol-5-yl-2-[5-(3-carboxy-phenyl)-furan-2-ylmethylene]-7-methyl-3-oxo-2,3-dihydro-5H-thiazolo[3,2-a]pyrimidine-6-carboxylic acid ethyl ester] is 5.57.
